Reference: ChEMBL document CHEMBL4421733, “Inhibitors of eya2” (2012)
The source made the active and inactive calls. No cut-off for these calls is given here.

Tests used:
[1] = target: T1, Protein phosphatase EYA2 (Homo sapiens) (UniProt O00167); assay: Inhibition of GST-fused human Eya2 ED (253 to 538 residues) expressed in Escherichia coli at […] pre-incubated for 10 mins followed by OMFP substrate addition and further incubated for 30 mins by fluorescence based assay
T1 sequence (whole entry): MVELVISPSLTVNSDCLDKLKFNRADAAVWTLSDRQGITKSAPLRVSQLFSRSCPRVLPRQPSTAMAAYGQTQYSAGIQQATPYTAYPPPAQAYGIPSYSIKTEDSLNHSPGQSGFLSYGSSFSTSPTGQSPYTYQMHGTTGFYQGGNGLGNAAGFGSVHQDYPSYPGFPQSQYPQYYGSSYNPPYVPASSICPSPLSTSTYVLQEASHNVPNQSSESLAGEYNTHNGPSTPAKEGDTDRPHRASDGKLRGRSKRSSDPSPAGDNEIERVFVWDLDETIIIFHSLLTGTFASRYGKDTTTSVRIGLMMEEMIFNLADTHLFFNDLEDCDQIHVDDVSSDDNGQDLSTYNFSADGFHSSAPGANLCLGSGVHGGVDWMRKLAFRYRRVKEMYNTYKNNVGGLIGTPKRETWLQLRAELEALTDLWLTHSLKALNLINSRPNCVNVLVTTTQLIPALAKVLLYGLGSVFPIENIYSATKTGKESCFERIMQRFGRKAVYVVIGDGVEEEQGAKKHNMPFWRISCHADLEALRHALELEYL

[2] = Binding affinity to Mg2+ ion in acetonitrile assessed as induction of shift in the maximum absorbance wavelength at 25 uM by UV spectroscopy
[3] = Binding affinity to Mg2+ ion in acetonitrile assessed as induction of shift in the maximum absorbance wavelength by UV spectroscopy
[4] = Binding affinity to Mg2+ ion at 25 uM in aqueous buffers by UV spectroscopy
[5] = Binding affinity to Mg2+ ion assessed as induction of chemical shift at 5 mM in presence of in presence of 25 mM magnesium 1H-NMR spectroscopy
[6] = Binding affinity to Na+ ion in acetonitrile at 12.5 uM assessed as induction of shift in the maximum absorbance wavelength by UV spectroscopy
[7] = Binding affinity to Na+ ion assessed as induction of chemical shift at 5 mM by 1H-NMR spectroscopy

**Q.** Which inhibition [1] does the source give for `N[C@@H](Cc1ccccc1)C(=O)O` here?
**A.** The inhibition was “inactive”.

**Q.** For `Cc1ccccc1C(=O)N/N=C/c1ccc(Sc2ccccn2)o1`, which Activity [2] is on record?
**A.** The Activity was “Active”.

**Q.** For `C=C1[C@@H](O)[C@@H]2O[C@@]3(CC[C@H](/C=C/[C@@H](C)[C@@H]4CC(C)=C[C@@]5(O[C@H](C[C@@](C)(O)C(=O)O)CC[C@H]5O)O4)O3)CC[C@H]2O[C@@H]1[C@@H](O)C[C@H](C)[C@H]1O[C@@]2(CCCCO2)CC[C@H]1C`, which inhibition [1] is on record?
**A.** Its inhibition is “inactive”.

**Q.** Which inhibition [1] does the source give for `c1cnc2c(c1)ccc1cccnc12` here?
**A.** Its inhibition is “inactive”.

**Q.** For `O=C(N/N=C/c1ccc(Sc2ccccn2)o1)c1cccc(F)c1`, which Activity [3] is on record?
**A.** The Activity was “Dose-dependent effect”.

**Q.** What about the Activity [4] of the same compound?
**A.** Its Activity is “inactive”.

**Q.** And the Activity [5]?
**A.** The Activity was -0.6 ppm.

**Q.** And the Activity [6]?
**A.** Its Activity is “inactive”.

**Q.** And the Activity [7]?
**A.** Its Activity is “inactive”.
